Publication PMC11313965, “Bioactive Naphthoquinone and Phenazine Analogs from the Endophytic Streptomyces sp. PH9030 as α-Glucosidase Inhibitors” (Molecules, 2024)
Converted amounts (≈) assume the structure as drawn. Like-named read-outs stand apart in the source and are kept apart here.

Assays:
lung (A549) cancer cells = conditions: cited from earlier work
[1] = tested on: breast (MDA MB-231) cancer cells; conditions: cited from earlier work
HeLa S3 cells = tested on: HeLa S3 cells; design: method as in PMID 2324009; conditions: cited from earlier work
Bacillus subrifis = tested on: Bacillus subrifis; design: method as in doi:10.1016/0040-4039(93)88010-G; conditions: cited from earlier work
[2] = tested on: Staphylococcus aureus ATCC 25923; design: method as in PMID 24389824; conditions: cited from earlier work
[3] = tested on: Staphylococcus epidermidis ATCC 12228; design: method as in PMID 24389824; conditions: cited from earlier work
α-glucosidase = α-glucosidase (Saccharomyces cerevisiae, UniProt P53341); test: biochemical; conditions: read-out: IC50, α-glucosidase inhibitory activity
[4] = tested on: Klebsiella pneumoniae ATCC 13883; test: Antibacterial assay, broth dilution MIC; format: cell-based
Method: (§1) The MIC values of 5–12 against Staphylococcus aureus ATCC 29213, MRSA, Klebsiella pneumoniae ATCC 13883 and Pseudomonas aeruginosa ATCC 9027 were determined via a broth dilution assay in 96-well plates, with levofloxacin as a control (Table S7).
(§2) The broth dilution method was used to determine the minimum inhibitory concentrations (MICs). The details are described in the Supplementary Materials. […]
(§3) Compounds 5 – 12 were tested for antibacterial activity against Staphylococcus aureus ATCC 29213, methicillin-resistant Staphylococcus aureus (MRSA), Klebsiella pneumoniae ATCC 13883 and Pseudomonas aeruginosa ATCC 9027. The MICs were determined using broth dilution assay. The bacterial strains were cultured overnight and diluted to […] in Luria-Bertani (LB, Table S1) broth. 5 – 12 were dissolved in DMSO, serially diluted to 10 different concentrations (64, 32, 16, 8, 4, 2, 1, 0.5. 0.25, 0.125 μg/mL) using LB broth on the 96 well plate.
(§4) Levofloxacin (Bide Pharmatech Ltd., Shanghai, China) was dissolved in DMSO, serially diluted to 1 0 concentrations (0.125 –64 μg/mL) using LB broth on each 96-well plate. Then 100 μL LB broth containing compounds 5 – 12 or levofloxacin and 100 μL of bacterial solution were mixed per well. The plates were incubated at 37 °C for 18 h. Finally, 50 μL resazurin (Shanghai Macklin Biochemical Technology Co., Ltd., Shanghai, China) was added into each well to visualize the result. […]

[5] = tested on: Pseudomonas aeruginosa ATCC 9027; test: Antibacterial assay, broth dilution MIC; format: cell-based
Method: as §1, §2, §3, §4

[6] = tested on: Staphylococcus aureus ATCC 29213; test: Antibacterial assay, broth dilution MIC; format: cell-based
Method: as §1, §2, §3, §4

[7] = tested on: methicillin-resistant Staphylococcus aureus (MRSA); test: Antibacterial assay, broth dilution MIC; format: cell-based; conditions: 18 h
Method: as §1, §2, §3, §4

[8] = ATCC13883, Klebsiella pneumoniae ATCC 13883, 37 °C, 18 h, read-out: MIC
[9] = ATCC9027, Pseudomonas aeruginosa ATCC 9027, 37 °C, 18 h, read-out: MIC
[10] = ATCC29213, Staphylococcus aureus ATCC 29213, 37 °C, 18 h, read-out: MIC
[11] = Staphylococcus aureus, 37 °C, read-out: MIC

Sequence of α-glucosidase (P53341 whole entry): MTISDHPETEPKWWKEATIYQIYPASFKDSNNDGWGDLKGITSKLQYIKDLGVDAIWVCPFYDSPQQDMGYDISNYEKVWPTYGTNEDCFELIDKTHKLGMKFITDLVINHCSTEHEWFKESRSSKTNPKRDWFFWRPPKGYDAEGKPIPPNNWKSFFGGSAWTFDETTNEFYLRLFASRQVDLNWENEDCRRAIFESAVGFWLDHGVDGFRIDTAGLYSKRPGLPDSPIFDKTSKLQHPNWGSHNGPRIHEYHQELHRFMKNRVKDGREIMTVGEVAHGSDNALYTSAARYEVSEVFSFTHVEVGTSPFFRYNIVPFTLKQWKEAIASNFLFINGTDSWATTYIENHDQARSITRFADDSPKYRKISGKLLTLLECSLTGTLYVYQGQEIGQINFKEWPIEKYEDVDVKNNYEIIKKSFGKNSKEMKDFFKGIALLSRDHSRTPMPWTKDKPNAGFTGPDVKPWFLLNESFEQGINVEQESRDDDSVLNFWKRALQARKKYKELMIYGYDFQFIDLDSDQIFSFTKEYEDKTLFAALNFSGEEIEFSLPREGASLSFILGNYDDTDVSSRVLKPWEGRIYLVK

Row | MIC [4, 8] | MIC [7, 11] | Compound | IC50 (α-glucosidase) | MIC [5, 9] | MIC [6, 10] | further results
1 | – | – | 5-Methyl phenazine-1-carboxylic acid [Compound 4] | – | – | – | IC50 (lung (A549) cancer cells): 0.4887 ± 0.00252 µM; IC50 [1]: 0.4586 ± 0.00248 µM
2 | – | – | CC1(C)OC2=C(C(=O)c3cc(O)cc(O)c3C2=O)[C@@H]2C=C(CO)CC[C@@H]21 [Compound 1, naphthgeranine B] | – | – | – | IC50, cytotoxic effect (HeLa S3 cells): 1.6 µg/mL (≈ 4.49 µM)
3 | – | – | CC(C)=CCC[C@@]1(C)OC2=C(C(=O)c3c(Br)c(O)cc(O)c3C2=O)[C@@H]2C=C(C)CC[C@@H]21 [Compound 2, marinone] | – | – | – | MIC (Bacillus subrifis): 1 µg/mL (≈ 2.05 µM)
4 | – | – | Oc1c(Br)ccc2nc3ccccc3nc12 [Compound 3, 2-Bromo-1-hydroxyphenazine] | – | – | – | MIC [2]: 1.72 µg/mL (≈ 6.25 µM); MIC [3]: 1.72 µg/mL (≈ 6.25 µM)
5 | – | – | CC1=CC2C3=C(OC(C)(C)C2CC1O)C(=O)c1c(O)cc(O)cc1C3=O (stereo not shown) [Compound 6, 12-Hydroxy-naphthgeranine A] | 116 ± 4.4 µM | – | – | MIC ([4]; Klebsiella pneumoniae ATCC 13883, 37 °C, 18 h): > 64 µg/mL; MIC ([5]; Pseudomonas aeruginosa ATCC 9027, 37 °C, 18 h): > 64 µg/mL; MIC ([6]; Staphylococcus aureus ATCC 29213, 37 °C, 18 h): > 64 µg/mL; MIC ([7]; 37 °C): > 64 µg/mL
6 | > 64 µg/mL | > 64 µg/mL | O=C(O)c1cccc2c1Nc1ccccc1N2C(=O)CO [Compound 8, 5-(2-hydroxyacetyl)-5,10-dihydrophenazine-1-carboxylic acid] | – | > 64 µg/mL | > 64 µg/mL | –
7 | – | – | O=C(O)c1cccc2nc3ccccc3nc12 [Compound 10, phenazine-1-carboxylic acid] | > 800 µM | – | – | MIC ([4]; Klebsiella pneumoniae, ATCC13883, 18 h): > 64 µg/mL; MIC ([5]; Pseudomonas aeruginosa, ATCC9027, 18 h): > 64 µg/mL; MIC ([6]; Staphylococcus aureus, ATCC29213, 18 h): 32 µg/mL (≈ 143 µM); MIC ([7]; Staphylococcus aureus): > 64 µg/mL
8 | > 64 µg/mL | > 64 µg/mL | COC(=O)c1cccc2nc3ccccc3nc12 [Compound 11, 1-carbomethoxyphenazine] | – | – | – | –
9 | > 64 µg/mL | 16 µg/mL (≈ 88.8 µM) | c1ccc2nc3ccccc3nc2c1 [Compound 12, phenazin] | – | – | – | –
10 | 1 µg/mL (≈ 2.77 µM) | 0.5 µg/mL (≈ 1.38 µM) | C[C@H]1COc2c(N3CCN(C)CC3)c(F)cc3c(=O)c(C(=O)O)cn1c23 [LEV, levofloxacin, reference compound] | – | 2 µg/mL (≈ 5.53 µM) | 0.25 µg/mL (≈ 0.692 µM) | –

Row | Compound | MIC [4, 8] | MIC [7, 11] | IC50 (α-glucosidase) | MIC [5, 9] | MIC [6, 10] | further results
11 | CC1=CC2C3=C(OC(C)(C)C2CC1O)C(=O)c1c(O)cc(O)cc1C3=O (stereo not shown) [Compound 5, naphthgeranine G] | > 64 µg/mL | > 64 µg/mL | 66.4 ± 6.7 µM | > 64 µg/mL | > 64 µg/mL | –
12 | CC1=CC2C3=C(OC(C)(C)C2CC1)C(=O)c1c(O)cc(O)cc1C3=O (stereo not shown) [Compound 7, naphthgeranine A] | > 64 µg/mL | > 64 µg/mL | 185.9 ± 0.2 µM | > 64 µg/mL | > 64 µg/mL | –
13 | NC(=O)c1cccc2nc3ccccc3nc12 [Compound 9, phenazine-1-carboxamide] | > 64 µg/mL | 16 µg/mL (≈ 71.7 µM) | 105 ± 10.5 µM | > 64 µg/mL | 64 µg/mL (≈ 287 µM) | –
